Assays:
Format in all cases: cell-based
WT-BaF3 cells = assay: Cell antiproliferative activity assay (CCK-8), WT-BaF3 (broad-spectrum cytotoxicity); settings: 72 h; WT-BaF3 cells (IL-3 supplemented), CCK-8, 3 days incubation
How it was run: (§1)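 Growth inhibition over 3 days, with compound serially diluted 3-fold from a 10 µM top concentration. Cells seeded at 100,000 cells/mL; WT-BaF3 medium carried 10% WEHI supernatant as the IL-3 source. Viability read by CCK-8 OD450 after 2-4 h; IC50 from blank-subtracted curve fit.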

BRK-BaF3 cells = assay: Cell antiproliferative activity assay (CCK-8), BRK-BaF3; settings: 72 h, CCK-8, 3 days incubation
How it was run: as §1

T47D cells = assay: Cell antiproliferative activity assay (CCK-8), T47D; settings: Homo sapiens, 72 h, breast cancer cell line T47D, incubation for 3 days
Experimental: BRK-BaF3, WT-BaF3, WEHI cell line, and breast cancer cell line T47D were cultured using RPMI 1640 Basal medium or DMEM (Dulbecco's Modified Eagle Medium) (Shanghai Peiyuan Biotechnology, L220KJ), supplemented with 10% FBS (Gibco, REF 10099-141C) and 1% P/S (Shanghai Peiyuan Biotechnology, S110JV), in an incubator (Thermo 3020) at 37°C with 5% CO2. Cell viability was above 95%. Cells were passaged at a 3:1 ratio every 3-4 days. For WT-BaF3 cells, WEHI cells were first cultured, and their culture supernatant was filtered through a 0.22 µm filter. This supernatant was added at 10% to the regular culture medium to supplement IL-3 required for WT-BaF3 cell proliferation, which served as the culture medium for WT-BaF3. For testing, cells were first collected and counted, then prepared into a cell suspension at 100,000 cells/mL and plated at 100 µL per well. Drug concentrations started from 10 µM and were serially diluted 3:1. After incubation for 3 days, 20 µL of CCK-8 detection reagent (Targetmol C005) was added to each well. After incubation for 2-4 hours, OD450 was measured using a microplate reader (Varioskan LUX, Thermo Scientific). After subtracting the blank background, the curve was fitted and the IC50 was calculated using XLfit software.
In addition, the following table exemplarily lists the IC50 values of some compounds of the present invention against T47D cells.

SMILES | IC50 (BRK-BaF3 cells) | IC50 (T47D cells) | IC50 (WT-BaF3 cells)
Cc1nn(CCO)cc1Nc1ncc2cc(-c3cncc(F)c3C)cc(C(C)C)c2n1 [I-36] | ≤ 20 nM | ≤ 500 nM | 500 to 2500 nM
Cc1ccc(-c2cc(C(C)C)c3nc(Nc4cn(CCO)nc4C)ncc3c2)c(F)n1 [I-39] | 20 to 100 nM | ≤ 500 nM | 100 to 500 nM
Cc1nn(CCO)cc1Nc1ncc2cc(-c3cc(F)cnc3C)cc(C(C)C)c2n1 [I-41] | ≤ 20 nM | 500 to 1000 nM | > 2500 nM
Cc1ccnc(F)c1-c1cc(C(C)C)c2nc(Nc3cn(CCO)nc3C)ncc2c1 [I-46] | ≤ 20 nM | ≤ 500 nM | 500 to 2500 nM
Cc1nn(CCO)cc1Nc1ncc2cc(-c3c(F)ccnc3N)cc(C(C)C)c2n1 [I-48] | ≤ 20 nM | 500 to 1000 nM | > 2500 nM
Cc1nn(CCCO)cc1Nc1ncc2cc(-c3cccnc3)cc(C(C)C)c2n1 [I-53] | ≤ 20 nM | ≤ 500 nM | 500 to 2500 nM
CC(C)c1cc(-c2cccnc2)cc2cnc(Nc3cn(CCO)nc3C(F)F)nc12 [I-54] | ≤ 20 nM | 500 to 1000 nM | 500 to 2500 nM
CC(C)c1cc(-c2cccnc2)cc2cnc(Nc3cn(CCO)nc3Cl)nc12 [I-55] | ≤ 20 nM | ≤ 500 nM | 500 to 2500 nM
Cc1ccncc1-c1cc(C(C)C)c2nc(Nc3cn(CC(C)(C)O)nc3C)ncc2c1 [I-56] | ≤ 20 nM | ≤ 500 nM | 500 to 2500 nM
Cc1nn(CC(C)(C)O)cc1Nc1ncc2cc(-c3cccnc3C)cc(C(C)C)c2n1 [I-57] | ≤ 20 nM | 500 to 1000 nM | 100 to 500 nM
Cc1ccncc1-c1cc(C(C)C)c2nc(Nc3cnn(CCO)c3C)ncc2c1 [I-59] | ≤ 20 nM | ≤ 500 nM | > 2500 nM
Cc1nccnc1-c1cc(C(C)C)c2nc(Nc3cn(CCO)nc3Cl)ncc2c1 [I-98] | ≤ 20 nM | 500 to 1000 nM | 500 to 2500 nM
Cc1ccnnc1-c1cc(C2CC2)c2nc(Nc3cn(CCO)nc3C)ncc2c1 [I-119] | ≤ 20 nM | 500 to 1000 nM | 500 to 2500 nM
COc1ncncc1-c1cc(C(C)C)c2nc(Nc3cn(CCO)nc3C)ncc2c1 [I-125] | ≤ 20 nM | 500 to 1000 nM | > 2500 nM
Cc1ncnc(C)c1-c1cc(C(C)C)c2nc(Nc3cnn(CCO)c3)ncc2c1 [I-140] | ≤ 20 nM | 500 to 1000 nM | 500 to 2500 nM
Cc1nn(CCO)cc1Nc1ncc2cc(-c3cncnc3C)cc(C3CC3)c2n1 [I-146] | ≤ 20 nM | 500 to 1000 nM | 500 to 2500 nM
Cc1nn(CCO)cc1Nc1ncc2cc(-c3c(C)ncnc3C)cc(C3CC3)c2n1 [I-147] | ≤ 20 nM | 500 to 1000 nM | 500 to 2500 nM
Cc1nn(CCO)cc1Nc1ncc2cc(-c3cc(O)ccc3F)cc(C(C)C)c2n1 [I-160] | ≤ 20 nM | ≤ 500 nM | 100 to 500 nM
Cc1ccc(C#N)cc1-c1cc(C(C)C)c2nc(Nc3cn(CCO)nc3C)ncc2c1 [I-162] | ≤ 20 nM | ≤ 500 nM | 500 to 2500 nM
Cc1nn(CCO)cc1Nc1ncc2cc(-c3c[nH]nc3C)cc(C(C)C)c2n1 [I-187] | ≤ 20 nM | ≤ 500 nM | 500 to 2500 nM
Cc1nn(CCO)cc1Nc1ncc2cc(-c3c(C)n[nH]c3C)cc(C(C)C)c2n1 [I-189] | ≤ 20 nM | 500 to 1000 nM | 500 to 2500 nM
Cc1nn(CCO)cc1Nc1ncc2cc(-c3cnoc3C)cc(C(C)C)c2n1 [I-193] | ≤ 20 nM | ≤ 500 nM | 100 to 500 nM
Cc1nccnc1-c1cc(C(C)C)c2nc(Nc3ccc(P(C)(C)=O)cc3)ncc2c1 [II-11] | ≤ 20 nM | ≤ 500 nM | 500 to 2500 nM
Cc1nccnc1-c1cc(C(C)C)c2nc(Nc3ccc(P(C)(C)=O)cc3F)ncc2c1 [II-12] | 20 to 100 nM | 500 to 1000 nM | > 2500 nM

Further lines, with some results ahead:

IC50 (BRK-BaF3 cells) | IC50 (T47D cells) | SMILES | IC50 (WT-BaF3 cells)
≤ 20 nM | ≤ 500 nM | COc1cc(Nc2ncc3cc(-c4nccnc4C)cc(C(C)C)c3n2)ccc1P(C)(C)=O [II-16] | 500 to 2500 nM
≤ 20 nM | 500 to 1000 nM | Cc1nccnc1-c1cc(C(C)C)c2nc(Nc3ccc(P(C)(C)=O)c(C)c3F)ncc2c1 [II-18] | > 2500 nM
≤ 20 nM | ≤ 500 nM | COc1cc(Nc2ncc3cc(-c4nccnc4C)cc(C(C)C)c3n2)c(F)cc1P(C)(C)=O [II-22] | 500 to 2500 nM
≤ 20 nM | ≤ 500 nM | COc1cc(Nc2ncc3cc(-c4nccnc4C)cc(C4CC4)c3n2)ccc1P(C)(C)=O [II-33] | 100 to 500 nM
≤ 20 nM | 500 to 1000 nM | COc1cc(Nc2ncc3cc(-c4c(C)ncnc4C)cc(C4CC4)c3n2)ccc1P(C)(C)=O [II-62] | 100 to 500 nM
≤ 20 nM | ≤ 500 nM | COc1cc(Nc2ncc3cc(-c4cccnc4C)cc(C4CC4)c3n2)ccc1P(C)(C)=O [II-64] | 500 to 2500 nM
≤ 20 nM | ≤ 500 nM | COc1cc(Nc2ncc3cc(-c4nnccc4C)cc(C4CC4)c3n2)ccc1P(C)(C)=O [II-67] | 100 to 500 nM
20 to 100 nM | ≤ 500 nM | COc1cc(Nc2ncc3cc(-c4nccnc4C)cc(C4CC4)c3n2)c(F)cc1P(C)(C)=O [II-70] | 500 to 2500 nM
≤ 20 nM | ≤ 500 nM | COc1nc(Nc2ncc3cc(-c4nccnc4C)cc(C4CC4)c3n2)ccc1P(C)(C)=O [II-71] | 500 to 2500 nM
≤ 20 nM | ≤ 500 nM | CCOc1cc(Nc2ncc3cc(-c4nccnc4C)cc(C4CC4)c3n2)ccc1P(C)(C)=O [II-72] | 500 to 2500 nM
≤ 20 nM | ≤ 500 nM | CCP(=O)(CC)c1ccc(Nc2ncc3cc(-c4nccnc4C)cc(C4CC4)c3n2)cc1OC [II-74] | 500 to 2500 nM
≤ 20 nM | ≤ 500 nM | CNc1cc(Nc2ncc3cc(-c4nccnc4C)cc(C4CC4)c3n2)ccc1P(C)(C)=O [II-77] | 100 to 500 nM
≤ 20 nM | ≤ 500 nM | Cc1c[nH]c(=O)cc1-c1cc(C(C)C)c2nc(Nc3cn(C)nc3C)ncc2c1 [III-2] | > 2500 nM
≤ 20 nM | 500 to 1000 nM | Cc1c[nH]c(=O)cc1-c1cc(C(C)C)c2nc(Nc3cn(C)nc3C(F)F)ncc2c1 [III-4] | 500 to 2500 nM
≤ 20 nM | ≤ 500 nM | [2H]C([2H])([2H])n1cc(Nc2ncc3cc(-c4cc(=O)[nH]cc4C)cc(C(C)C)c3n2)c(C)n1 [III-9] | 500 to 2500 nM
≤ 20 nM | 500 to 1000 nM | Cc1c[nH]c(=O)cc1-c1cc(C(C)C)c2nc(Nc3cnn(C4CCN(C)CC4)c3C)ncc2c1 [III-14] | 500 to 2500 nM
≤ 20 nM | ≤ 500 nM | Cc1nn(C)cc1Nc1ncc2cc(-c3cn(C)nc3C)cc(C(C)C)c2n1 [III-87] | 100 to 500 nM
≤ 20 nM | 500 to 1000 nM | Cc1nn(C)cc1Nc1ncc2cc(-c3c[nH]nc3C)cc(C(C)C)c2n1 [III-88] | 500 to 2500 nM
≤ 20 nM | ≤ 500 nM | Cc1ccnnc1-c1cc(C(C)C)c2nc(Nc3cn(C)nc3C)ncc2c1 [III-90] | 100 to 500 nM
≤ 20 nM | ≤ 500 nM | Cc1nn(C)cc1Nc1ncc2cc(-c3cncnc3C)cc(C(C)C)c2n1 [III-92] | 100 to 500 nM
≤ 20 nM | ≤ 500 nM | Cc1nn(C)cc1Nc1ncc2cc(-c3nccnc3C)cc(C(C)C)c2n1 [III-99] | 500 to 2500 nM
≤ 20 nM | 500 to 1000 nM | Cc1nccnc1-c1cc(C(C)C)c2nc(Nc3cn(C)nc3Cl)ncc2c1 [III-101] | 500 to 2500 nM
≤ 20 nM | 500 to 1000 nM | Cc1nccnc1-c1cc(C(C)C)c2nc(Nc3cn(C)nc3C(F)F)ncc2c1 [III-102] | > 2500 nM
≤ 20 nM | ≤ 500 nM | [2H]C([2H])([2H])n1cc(Nc2ncc3cc(-c4nccnc4C)cc(C(C)C)c3n2)c(C)n1 [III-103] | 100 to 500 nM
≤ 20 nM | ≤ 500 nM | Cc1ccncc1-c1cc(C(C)C)c2nc(Nc3cn(C)nc3C)ncc2c1 [III-120] | 100 to 500 nM
≤ 20 nM | ≤ 500 nM | Cc1ccc(C#N)cc1-c1cc(C(C)C)c2nc(Nc3cn(C)nc3C)ncc2c1 [III-130] | 500 to 2500 nM
≤ 20 nM | ≤ 500 nM | Cc1nccnc1-c1cc(C2CC2)c2nc(Nc3cnn(CC(=O)N(C)C)c3)ncc2c1 [III-132] | 500 to 2500 nM
